Reference: US20050107386A1, “Methods of treating diseases and disorders by targeting multiple kinases” (priority 2003, published 2005)

Legend:
Format in all cases: biochemical
Conditions in all cases: 3 μM; percent of control kinase activity
p70S6K(h) = p70S6K(h) (Homo sapiens, UniProt P23443); experiment: p70S6K(h) kinase assay
Description: (§1) Six compounds (presumptive single agents) were tested against a panel of 50 kinases. The results are presented in Table 2; numbers for each kinase indicate the percent of control kinase activity in the presence of a 3μM concentration of the indicated agent.
(§2) Agents that target two or more different kinases are useful in the methods of the invention as described elsewhere herein. Such compounds may be identified, and their effect on certain kinases may be identified, using the assays briefly described below in Examples 4-83. Each of these assays was carried out as described in Davies et al., Biochem. J., 351:95-105 (2000). All assays were carried out at 10 μM ATP unless otherwise noted.
(§3) In a final reaction volume of 25 μl, p70S6K (h) (5-10 mU) is incubated with 8 mM MOPS pH 7.0, 0.2 mM EDTA, 100 μM […] (SEQ ID NO:9), 10 mM MgAcetate and [γ-^33P-ATP] (specific activity approx. 500 cpm/pmol, concentration as required). The reaction is initiated by the addition of Mg^2+ [γ-^33P-ATP]. After incubation for 40 minutes at room temperature, the reaction is stopped by the addition of 5 μl of a 3% phosphoric acid solution. 10 μl of the reaction is then spotted onto a P30 filtermat and washed three times for 5 minutes in 75 mM phosphoric acid and once in methanol prior to drying and scintillation counting.

Lck(h) = Lck(h) (Homo sapiens, UniProt P06239); experiment: Lck(h) kinase assay
Lck(h), sequence (P06239 whole entry): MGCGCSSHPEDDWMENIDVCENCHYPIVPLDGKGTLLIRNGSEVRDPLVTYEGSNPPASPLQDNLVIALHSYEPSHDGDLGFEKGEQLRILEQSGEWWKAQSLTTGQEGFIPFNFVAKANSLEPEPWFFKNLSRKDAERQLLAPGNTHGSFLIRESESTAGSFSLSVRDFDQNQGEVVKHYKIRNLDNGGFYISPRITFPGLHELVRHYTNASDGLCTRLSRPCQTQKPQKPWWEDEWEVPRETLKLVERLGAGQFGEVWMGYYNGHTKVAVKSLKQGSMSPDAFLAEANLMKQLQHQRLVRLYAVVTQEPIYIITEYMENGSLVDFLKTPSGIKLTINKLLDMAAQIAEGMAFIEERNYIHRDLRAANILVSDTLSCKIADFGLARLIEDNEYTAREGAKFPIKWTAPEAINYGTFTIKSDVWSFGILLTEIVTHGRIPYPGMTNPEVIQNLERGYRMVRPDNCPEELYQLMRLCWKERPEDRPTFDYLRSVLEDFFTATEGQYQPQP
Description: as §1, §2
In a final reaction volume of 25 μl, Lck(h) (5-10 mU) is incubated with 50 mM Tris pH 7.5, 0.1 mM EGTA, 0.1 mM NaVanadate, 250 μM […] (Cdc2 peptide; SEQ ID NO:7), 10 mM MgAcetate and [γ-^33P-ATP] (specific activity approx. 500 cpm/pmol, concentration as required). The reaction is initiated by the addition of Mg^2+ [γ-^33P-ATP]. After incubation for 40 minutes at room temperature, the reaction is stopped by the addition of 5 μl of a 3% phosphoric acid solution. 10 μl of the reaction is then spotted onto a P30 filtermat and washed three times for 5 minutes in 75 mM phosphoric acid and once in methanol prior to drying and scintillation counting.

PDGFRα(h) = PDGFRα(h) (Homo sapiens, UniProt P16234); experiment: PDGFRα(h) kinase assay
PDGFRα(h), sequence (P16234 24-1089): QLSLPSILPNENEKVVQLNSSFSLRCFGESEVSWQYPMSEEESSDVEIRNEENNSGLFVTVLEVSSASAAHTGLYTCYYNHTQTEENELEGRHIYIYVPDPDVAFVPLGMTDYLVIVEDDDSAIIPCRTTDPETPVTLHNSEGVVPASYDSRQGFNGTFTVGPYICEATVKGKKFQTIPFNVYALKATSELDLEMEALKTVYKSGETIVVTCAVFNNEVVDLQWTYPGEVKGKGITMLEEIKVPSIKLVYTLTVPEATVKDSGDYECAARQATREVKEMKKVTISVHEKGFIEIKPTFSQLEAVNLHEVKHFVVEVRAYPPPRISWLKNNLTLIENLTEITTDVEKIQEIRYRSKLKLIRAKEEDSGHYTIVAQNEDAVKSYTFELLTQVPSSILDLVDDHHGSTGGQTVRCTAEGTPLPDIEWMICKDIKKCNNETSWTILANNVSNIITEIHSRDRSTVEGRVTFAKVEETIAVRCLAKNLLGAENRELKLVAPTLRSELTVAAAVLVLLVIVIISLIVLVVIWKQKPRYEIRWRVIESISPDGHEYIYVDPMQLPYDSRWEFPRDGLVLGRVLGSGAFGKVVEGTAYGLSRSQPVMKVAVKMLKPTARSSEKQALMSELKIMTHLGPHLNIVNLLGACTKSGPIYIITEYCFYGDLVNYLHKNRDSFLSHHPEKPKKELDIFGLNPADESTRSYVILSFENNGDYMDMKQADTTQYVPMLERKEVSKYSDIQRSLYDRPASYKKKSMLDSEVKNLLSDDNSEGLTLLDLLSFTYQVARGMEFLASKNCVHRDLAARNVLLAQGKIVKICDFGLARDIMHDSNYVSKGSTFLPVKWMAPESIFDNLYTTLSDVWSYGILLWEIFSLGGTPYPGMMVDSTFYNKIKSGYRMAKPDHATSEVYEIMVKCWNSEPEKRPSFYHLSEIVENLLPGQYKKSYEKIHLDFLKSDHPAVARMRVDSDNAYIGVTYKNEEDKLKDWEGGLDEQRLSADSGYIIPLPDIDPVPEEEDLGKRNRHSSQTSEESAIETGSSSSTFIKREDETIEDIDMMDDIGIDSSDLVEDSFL
Description: as §1, §2
In a final reaction volume of 25 μl, PDGFRα (h) (5-10 mU) is incubated with 8 mM MOPS pH 7.0, 0.2 mM EDTA, 0.1 mg/ml poly(Glu, Tyr) 4:1, 10 mM MnCl2, 10 mM MgAcetate and [γ-^33P-ATP] (specific activity approx. 500 cpm/pmol, concentration as required). The reaction is initiated by the addition of Mg^2+ [γ-^33P-ATP]. After incubation for 40 minutes at room temperature, the reaction is stopped by the addition of 5 μl of a 3% phosphoric acid solution. 10 μl of the reaction is then spotted onto a Filtermat A and washed three times for 5 minutes in 75 mM phosphoric acid and once in methanol prior to drying and scintillation counting.

PDK1(h) = target: T1, PDK1(h) (Homo sapiens, UniProt O15530); experiment: PDK1(h) kinase assay
T1 sequence (O15530 1-556): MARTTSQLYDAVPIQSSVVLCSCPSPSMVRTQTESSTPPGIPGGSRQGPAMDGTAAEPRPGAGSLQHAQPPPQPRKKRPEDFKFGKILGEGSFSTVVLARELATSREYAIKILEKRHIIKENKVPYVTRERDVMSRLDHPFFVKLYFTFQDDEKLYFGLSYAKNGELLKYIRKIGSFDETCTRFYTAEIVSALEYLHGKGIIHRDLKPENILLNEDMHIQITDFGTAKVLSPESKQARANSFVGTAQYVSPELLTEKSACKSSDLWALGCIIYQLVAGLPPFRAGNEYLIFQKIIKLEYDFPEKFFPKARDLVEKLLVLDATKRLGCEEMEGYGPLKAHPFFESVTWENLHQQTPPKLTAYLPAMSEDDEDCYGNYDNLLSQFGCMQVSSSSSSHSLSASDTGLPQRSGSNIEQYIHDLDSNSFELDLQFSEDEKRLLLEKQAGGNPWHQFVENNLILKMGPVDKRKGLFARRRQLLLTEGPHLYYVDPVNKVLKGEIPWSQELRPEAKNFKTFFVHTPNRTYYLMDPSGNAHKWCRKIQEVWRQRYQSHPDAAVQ
Description: as §1, §2
as §3, with “PDK1” for “p70S6K”, “50” for “8”, “Tris” for “MOPS”, “7.5,” for “7.0, 0.2 mM EDTA,”, “NO:13) (PDKtide), 0.1% β-mercaptoethanol,” for “NO:9),”

PAK2(h) = PAK2(h) (Homo sapiens, UniProt Q13177); experiment: PAK2(h) kinase assay
PAK2(h), sequence (Q13177 whole entry): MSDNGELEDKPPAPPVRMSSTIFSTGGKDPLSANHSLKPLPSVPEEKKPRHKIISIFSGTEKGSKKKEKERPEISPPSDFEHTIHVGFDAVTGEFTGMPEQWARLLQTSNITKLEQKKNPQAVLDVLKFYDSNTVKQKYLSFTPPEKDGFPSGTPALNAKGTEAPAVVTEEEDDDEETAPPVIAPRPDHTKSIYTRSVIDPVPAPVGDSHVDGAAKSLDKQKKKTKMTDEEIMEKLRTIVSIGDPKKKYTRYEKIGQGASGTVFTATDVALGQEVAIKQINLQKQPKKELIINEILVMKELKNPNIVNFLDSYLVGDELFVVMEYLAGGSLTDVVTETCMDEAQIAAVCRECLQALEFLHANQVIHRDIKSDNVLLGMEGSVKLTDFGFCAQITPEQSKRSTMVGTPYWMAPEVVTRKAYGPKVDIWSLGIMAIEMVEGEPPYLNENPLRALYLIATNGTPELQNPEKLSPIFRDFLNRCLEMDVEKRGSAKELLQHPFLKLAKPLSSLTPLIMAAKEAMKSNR
Description: as §1, §2
as §3, with “PAK2(h)” for “p70S6K (h)”, “30” for “100”, “NO:8),” for “NO:9),”

Rsk2(h) = Rsk2(h) (Homo sapiens, UniProt P51812); experiment: Rsk2(h) kinase assay
Rsk2(h), sequence (P51812 whole entry): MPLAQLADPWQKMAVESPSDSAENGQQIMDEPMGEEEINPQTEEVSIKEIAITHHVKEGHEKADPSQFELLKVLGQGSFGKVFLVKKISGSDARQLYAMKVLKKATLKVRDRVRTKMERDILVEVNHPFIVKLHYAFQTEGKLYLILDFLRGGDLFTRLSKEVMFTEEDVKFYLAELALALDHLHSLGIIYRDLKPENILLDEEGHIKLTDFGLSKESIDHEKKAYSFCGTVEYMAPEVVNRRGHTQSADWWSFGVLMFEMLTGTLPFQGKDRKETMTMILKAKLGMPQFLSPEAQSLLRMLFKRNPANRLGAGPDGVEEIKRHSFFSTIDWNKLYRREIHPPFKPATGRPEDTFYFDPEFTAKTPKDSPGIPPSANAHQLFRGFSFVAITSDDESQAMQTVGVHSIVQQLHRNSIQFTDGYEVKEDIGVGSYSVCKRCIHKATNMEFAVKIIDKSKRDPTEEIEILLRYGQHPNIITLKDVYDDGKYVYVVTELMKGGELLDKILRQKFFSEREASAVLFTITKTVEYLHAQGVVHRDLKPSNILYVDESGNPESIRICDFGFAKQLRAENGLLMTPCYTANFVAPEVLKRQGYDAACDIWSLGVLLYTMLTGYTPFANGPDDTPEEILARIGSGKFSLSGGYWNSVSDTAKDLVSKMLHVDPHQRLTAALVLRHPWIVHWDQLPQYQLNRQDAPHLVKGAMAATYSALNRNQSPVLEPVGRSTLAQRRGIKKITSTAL
Description: as §1, §2
as §3, with “Rsk2(h)” for “p70S6K (h)”, “30” for “100”, “NO:11),” for “NO:9),”

p70S6K(h), sequence (P23443 whole entry): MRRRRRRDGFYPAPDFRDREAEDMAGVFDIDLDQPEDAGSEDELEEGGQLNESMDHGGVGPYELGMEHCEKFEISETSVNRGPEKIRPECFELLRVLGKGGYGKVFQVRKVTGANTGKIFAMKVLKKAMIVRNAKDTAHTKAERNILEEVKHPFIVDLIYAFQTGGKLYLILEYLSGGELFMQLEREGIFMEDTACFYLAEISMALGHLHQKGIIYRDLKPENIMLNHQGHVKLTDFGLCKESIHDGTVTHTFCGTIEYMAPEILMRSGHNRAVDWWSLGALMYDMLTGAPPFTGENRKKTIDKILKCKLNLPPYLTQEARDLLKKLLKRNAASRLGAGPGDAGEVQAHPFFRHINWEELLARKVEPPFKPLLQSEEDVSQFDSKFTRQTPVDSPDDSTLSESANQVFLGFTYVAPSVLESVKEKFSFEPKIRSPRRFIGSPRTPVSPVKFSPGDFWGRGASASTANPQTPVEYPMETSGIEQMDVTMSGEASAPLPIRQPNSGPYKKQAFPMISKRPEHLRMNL

Row | SMILES | Inhibitory activity (% of control), p70S6K(h) (p70S6K(h)) | Inhibitory activity (% of control), Lck(h) (Lck(h)) | Inhibitory activity (% of control), PDGFRα(h) (PDGFRα(h)) | Inhibitory activity (% of control), PDK1(h) (PDK1(h)) | Inhibitory activity (% of control), PAK2(h) (PAK2(h)) | Inhibitory activity (% of control), Rsk2(h) (Rsk2(h))
1 | COc1ccc2cc(-c3n[nH]c4ccc(-c5n[nH]c(CN6CCOCC6)n5)cc34)ccc2c1 [CC001, 3-(6-Methoxynaphthalen-2-yl)-5-(5-Morpholin-4-Ylmethyl-1H-[1,2,4]Triazol-3-yl)-1H-Indazole] | 17 % of control | 27 % of control | 72 % of control | 59 % of control | 68 % of control | 6 % of control
2 | CC(C)Cc1nc(-c2ccc3[nH]nc(-c4ccc5cc(OCCN6CCCC6)ccc5c4)c3c2)n[nH]1 [CC002, 5-(5-Isobutyl-1H-[1,2,4]Triazol-3-yl)-3-[6-(2-Pyrrolidin-1-yl-Ethoxy)-Naphthalen-2-yl]-1H-Indazole] | 16 % of control | 5 % of control | 71 % of control | 58 % of control | 21 % of control | 5 % of control
3 | CC(C)(C)Cc1nc(-c2ccc3[nH]nc(-c4ccc5cc(OCc6ccccn6)ccc5c4)c3c2)n[nH]1 [CC004, 5-[5-(2,2-Dimethyl-propyl)-1H-[1,2,4]triazol-3-yl]-3-[6-(pyridine-2-ylmethoxy)-naphthalen-2-yl]-1H-indazole] | 40 % of control | 57 % of control | 77 % of control | 70 % of control | 62 % of control | 34 % of control
4 | CCN1CCC[C@H]1COc1ccc2cc(-c3n[nH]c4ccc(-c5nc(CC(C)(C)C)n[nH]5)cc34)ccc2c1 [CC005, 2-[((2s)-1-ethylpyrrolidin-2-yl)methoxy]-6-{5-[3-(2,2-Dimethylpropyl)(1H-1,2,4,-triazol-5-yl)](1H-indazol-3-yl)}naphthalene] | 3 % of control | 6 % of control | 28 % of control | 59 % of control | 13 % of control | 3 % of control
5 | Fc1ccc(-c2n[nH]c3ccc(-c4n[nH]c(C5CCCC5)n4)cc23)cc1 [CC006, 5-(5-Cyclopentyl-1H-[1,2,4]triazol-3-yl)-3-(4-fluoro-phenyl)-1H-indazole, reference compound] | 41 % of control | 43 % of control | 86 % of control | 43 % of control | 56 % of control | 31 % of control
6 | O=C(NC1CCCC1)c1cccc(-c2n[nH]c3ccc(-c4nc[nH]n4)cc23)c1 [CC007, 3-(5-(1H-1,2,4-triazol-3-yl)(1H-indazol-3-yl))phenyl-N-cyclopentylcarboxamide, reference compound] | 83 % of control | 56 % of control | 108 % of control | 97 % of control | 86 % of control | 45 % of control
